How the values were obtained:
[1] = molecular target: T1, CYP3A4 (Homo sapiens, UniProt P08684); assay: Thermal denaturation of CYP3A4-inhibitor complex, WT; assay type: binding; conditions: WT CYP3A4 2 µM, 10 µM inhibitor; ligand-free 52.6 ± 0.1, with 2% DMSO 52.1 ± 0.1
[2] = molecular target: CYP3A4 S119A (Homo sapiens, UniProt P08684, S119A); assay: Thermal denaturation of CYP3A4 S119A-inhibitor complex; assay type: binding; conditions: for Tm: CYP3A4 S119A mutant, ligand-free 54.0 ± 0.1, with 2% DMSO 53.5 ± 0.1; for decrease in Tm of ligand-bound S119A CYP3A4 vs wild type: S119A vs WT
[3] = molecular target: T1, CYP3A4; assay: Dissociation during repetitive concentration/dilution cycles; assay type: binding
[4] = molecular target: T1, CYP3A4; assay: BFC hydroxylase activity inhibition in reconstituted system with CPR; conditions: from IC50 values
[5] = molecular target: T1, CYP3A4; assay: Redox potential measurement of inhibitor-bound CYP3A4; conditions: for Eo,7 (midpoint redox potential of the inhibitor-bound CYP3A4): ligand-free CYP3A4 ~−300 mV, benzyl viologen as redox dye; for negative shift (decrease) in heme redox potential Eo,7 caused by ligation: relative to ligand-free CYP3A4
[6] = molecular target: T1, CYP3A4; assay: Spectral binding titration; conditions: WT CYP3A4, relative to ritonavir

## CC(C)c1nc(CN(C)C(=O)N[C@H](C(=O)N[C@H](CC[C@H](Cc2ccccc2)NC(=O)OCc2cccnc2)Cc2ccccc2)C(C)C)cs1 [compound 3]
[1]
  Tm (melting temperature of the CYP3A4-inhibitor complex): 57.2 ± 0.2 °C
[2]
  Tm: 55.6 ± 0.2 °C
  decrease in Tm of ligand-bound S119A CYP3A4 vs wild type: 1–1.6 °C
[3]
  reversibility of binding (dissociation from CYP3A4): irreversibly
[4]
  fold more effective inhibition of BFC hydroxylation than ritonavir: 2–4 fold
[5]
  Eo,7 (midpoint redox potential of the inhibitor-bound CYP3A4): −350 ± 5 mV
  negative shift (decrease) in heme redox potential Eo,7 caused by ligation: ~70 mV

## CC(C)c1nc(CN(C)C(=O)N[C@H](C(=O)N[C@H](CC[C@H](Cc2ccccc2)NC(=O)OCc2cnc[nH]2)Cc2ccccc2)C(C)C)cs1 [compound 1]
[1]
  Tm (melting temperature of the CYP3A4-inhibitor complex): 56.5 ± 0.2 °C
[2]
  Tm: 55.5 ± 0.2 °C
  decrease in Tm of ligand-bound S119A CYP3A4 vs wild type: 1–1.6 °C
[3]
  reversibility of binding (dissociation from CYP3A4): dissociated
[5]
  Eo,7 (midpoint redox potential of the inhibitor-bound CYP3A4): <<-370 mV
  negative shift (decrease) in heme redox potential Eo,7 caused by ligation: > 70 mV

## CC(C)c1nc(CN(C)C(=O)N[C@H](C(=O)N[C@H](CC[C@H](Cc2ccccc2)NC(=O)OCc2cnco2)Cc2ccccc2)C(C)C)cs1 [compound 2]
[6]
  fold lower binding affinity for CYP3A4 than ritonavir (from Ks): 10 fold
[1]
  Tm (melting temperature of the CYP3A4-inhibitor complex): 54.8 ± 0.1 °C
[2]
  Tm: 53.2 ± 0.1 °C
  decrease in Tm of ligand-bound S119A CYP3A4 vs wild type: 1–1.6 °C
[3]
  reversibility of binding (dissociation from CYP3A4): dissociated
[4]
  fold lower inactivating potency than ritonavir: 6 fold
[5]
  Eo,7 (midpoint redox potential of the inhibitor-bound CYP3A4): ≈ −370 mV
  negative shift (decrease) in heme redox potential Eo,7 caused by ligation: ~ 50 mV
